# How the values were obtained:
# [1] = system: rats with spinal nerve ligature (Chung neuropathic pain model); assay: Chung neuropathic pain model, cold allodynia on cold plate (Example 3); assay type: in vivo, rat; details: cold plate
# Source text: The rats used in this experiment were the same rats used in Example 2. The materials and methods for this experiment were identical to those for Example 2 with the following exceptions: there was a 1-week washout between the two experiments, and the rats weighed 290-403 g at the start of this experiment. Prior to receiving drug treatment, all animals were submitted to tactile stimulation and assigned to treatment groups matched on the basis of their pain response. No account was taken of the treatment administered during the first experiment in assigning animals to treatment groups for this experiment.
# All of the substances were administered orally. Morphine, dissolved in distilled water, was administered at 128 mg/kg dose p.o. Rats were tested 30 minutes, 1 hour, 2 hours, and 4 hours after administration of the substances.
# Behavioral testing was carried out by measuring cold allodynia using an apparatus consisting of a cold plate maintained at 4±1° C. Rats were individually placed on the cold plate for a period of 5 minutes. The latency to the first paw withdrawal response and the number and total duration of withdrawal responses in 5 minutes were recorded for both the lesioned and the non-lesioned hindpaws.
# [2] = system: rats with L5 spinal nerve ligation (SNL model); assay: Spinal nerve ligation (L5) neuropathic pain model, von Frey filaments, dose range (Example 5); assay type: in vivo, rat
# Source text: The spinal nerve ligation (SNL) model of neuropathic pain was produced in all rats as described by Kim and Chung (Pain, 50, 355-363, 1992). Briefly, under gaseous anesthesia using halothane (3% for induction and 1.5% for maintenance) in oxygen, the left L5 spinal nerve was exposed by removing the paraspinal muscles and the transverse process of the L6 vertebra. The very proximal portion of the L5 spinal nerve was tightly ligated with 6-0 silk suture. The wounds were closed and anesthesia was discontinued. Rats were kept on a heated blanket until they had completely recovered from anesthesia.
# Behavioral tests were conducted in a non-blind fashion. The foot withdrawal threshold to mechanical stimuli applied to the paw (mechanical threshold) was measured, as an indicator of mechanical sensitivity of the affected paw. The foot withdrawal threshold was measured using von Frey filaments. It is generally thought that von Frey filaments are more sensitive than electronic von Frey probes for measuring tactile stimulation. The mechanical thresholds were measured by using the “up-and-down” method (Chaplan et al., J. Neurosci. Methods 53(1):55-63, 1994), following the procedures described in previous studies (Park et al., Pain 87(2):171-179, 2000; Xie et al., J. Pain 2(5):270-278, 2001; Baik et al., J. Pain 4:212-221, 2003). In brief, rats were placed in a transparent plastic box on a metal wire mesh floor. To determine the threshold stiffness required for 50% paw withdrawal, a series of eight von Frey filaments with approximately equal logarithmic incremental (0.22) von Frey values (3.65, 3.87, 4.10, 4.31, 4.52, 4.74, 4.92, and 5.16) were used. Von Frey (VF) values are logarithmically related to gram (g) values (VF=log (10,000×g)). The chosen von Frey values are therefore equivalent to 0.45, 0.74, 1.26, 2.04, 3.31, 5.50, 8.32, and 14.45 in gram value, respectively. Starting with filament 4.31, von Frey filaments were applied perpendicularly to the ventral surface of the proximal part of the third or fourth toe for 2-3 seconds. Whenever a positive response to a stimulus occurred (paw withdrawal), the next smaller von Frey hair was applied. Whenever a negative response occurred, the next larger one was applied. The test was continued until the response of six stimuli after the first change in response had been obtained or the test had reached either end of the spectrum of the von Frey set.
# The 50% threshold value was then calculated using Dixon's formula (Dixon, Ann. Rev. Phar. Tox. 20:441-462, 1980): 50% threshold=X+kd, where X is the value of the final von Frey hair used (in log units), k is the tabular value for the pattern of positive/negative responses, and d is the mean difference between stimuli in log units (0.22). In the cases where continuous positive or negative responses were observed all the way out to the end of the stimulus spectrum, values of 3.54 or 5.27 were assigned, respectively, by assuming a value of (−/+) 0.5 for k in these cases (Dixon, supra, 1980). Outcome of behavioral data were expressed as von Frey values (maximum range from 3.54 to 5.27) and plotted in a linear scale.
# Data were expressed as the mean±standard errors of mean (SEM). Differences in mechanical thresholds at various times after injections were tested using two-way (time and group factors) analysis of variance (ANOVA), followed by the Duncan's post-hoc test for multiple comparisons. Statistical analyses were done using the SAS® software program (SAS Institute Inc, Cary, N.C.). Two-tailed p-values<0.05 were considered to be significant.
# This experiment was conducted on 8 rats in a Latin-square design examining a dose response of OPC-14523. Gabapentin was prepared at 10 mg/ml in 0.5% tragacanth and administered at 100 mg/kg p.o. Behavioral tests were conducted in a blind fashion twice (1 day and 1 hour) before as well as 1 and 4 days after the neuropathic surgery. […] These 8 rats were randomly divided into 6 groups of 1-2 rats. […]
compound,measurement,setting,value
"COc1cccc2c1CCC(=O)N2CCCN1CCN(c2cccc(Cl)c2)CC1 [OPC-14523, 1-[3-[4-(3-chlorophenyl)-1-piperazinyl]propyl]-5-methoxy-3,4-dihydro-2(1H)-quinolone]",decrease of number of withdrawal responses,"[1]; 30 mg/kg p.o., lesioned paw, 30 minutes, p<0.01",50%
same,change of number of withdrawal responses,"[1]; 30 mg/kg p.o., lesioned paw, 4 hours, p<0.05",−48%
same,change of total duration of withdrawal responses,"[1]; 100 mg/kg p.o., 2 hours, p<0.05",−95%
same,change of latency to paw withdrawal,"[1]; 100 mg/kg p.o., lesioned paw, 30 minutes, p<0.01",+140%
same,decrease of number of withdrawal responses,"[1]; 100 mg/kg p.o., lesioned paw, 30 minutes, p<0.05",64%
same,change of latency to paw withdrawal,"[1]; 100 mg/kg p.o., lesioned paw, 1 hour, p=0.24",+183%
same,effect on mechanical threshold,[2]; 10 mg/kg oral,neither vehicle nor OPC-14523 at 10 mg/kg produced significant changes
same,effect on mechanical threshold,[2]; 30 mg/kg oral,statistically significant increase
same,level of response compared with gabapentin 100 mg/kg p.o.,[2]; 30 mg/kg oral,comparable to that of gabapentin
same,effect on mechanical threshold,[2]; 60 mg/kg oral,statistically significant increase
same,level of response compared with gabapentin 100 mg/kg p.o.,[2]; 60 mg/kg oral,comparable to that of gabapentin
same,effect on mechanical threshold,[2]; 100 mg/kg oral,statistically significant increase
same,level of mechanical threshold reached,"[2]; 100 mg/kg oral, exceeding the response induced by gabapentin",about the level observed prior to the ligature surgery

# Source: patent US20070142396A1, “Treatment of pain with 1-[3-[4-(3-chlorophenyl)-1-piperazinyl]propyl]-5-methoxy-3,4-dihydro-2(1H)-quinolone or salt thereof” (Vela Pharmaceuticals, Inc., priority 2005, published 2007)
